Measured values published in patent US8609712B2, “Purification of progesterone receptor modulators” (Wyeth LLC, priority 0205, dated 2013).
In brackets after ≈: the same amount, converted by molar mass.

Assays:
Solubility in DMF = conditions: solvent DMF
physchem = conditions: organic solvent or mixture
[1] = Solubility of the isolated salt in NMP / DMPU; type: physicochemical
Procedure: 6-Bromo-4,4-dimethyl-benzoxazine-2-one (2.59 g) was dissolved in THF (50 mL) at ambient temperature followed by addition of sodium tert-butoxide (0.96 g). The mixture was gently heated until a solution was obtained.
Similarly, 6-bromo-4,4-dimethyl-benzoxazine-2-one (2.55 g) was reacted with lithium tert-butoxide (10 mL of 1M solution in THF).

Compound: 5′-(5-cyano-1-methyl-1H-pyrrol-2-yl)spiro[cyclohexane-1,3′-[3H]indol]-2′-ylidenecyanamide choline salt
- solubility in DMF (Solubility in DMF): 11000 µg/mL

Compound: Cn1c(C#N)ccc1-c1ccc2c(c1)C1(CCCCC1)C(=NC#N)N2 [5′-(5-Cyano-1-methyl-1H-pyrrol-2-yl)spiro[cyclohexane-1,3′-[3H]indol]-2′-ylidenecyanamide]
- solubility (physchem): 3000 µg/mL (≈ 9.11 mM)

Compound: CC1(C)OC(=O)Nc2ccc(Br)cc21.[Li] [6-Bromo-4,4-Dimethyl-Benzoxazine-2-One Lithium Salt]
- solubility in dimethylpyrimidone (DMPU) ([1]; without heating): soluble

Compound: CC1(C)OC(=O)Nc2ccc(Br)cc21.[Na] [6-Bromo-4,4-Dimethyl-Benzoxazine-2-One Sodium Salt]
- solubility in N-methylpyrrolidone (NMP) and dimethylpyrimidone (DMPU) ([1]; solvents heated to about 40 to about 50° C.): soluble
